Test system: T-47D cells
Test: Caspase cascade activation (N-(Ac-DEVD)-N′-ethoxycarbonyl-R110 fluorogenic substrate) in T-47D cells; as to Caspase activity Ratio T-47D (24 hr): test concentration or dose not given here; as to Caspase activity Ratio T-47D (48 hr): test concentration or dose not given here
Format: cell-based, Human
Conditions: T-47D, 24 hr; ratio of net RFU to control

Structure (SMILES) | Caspase activity Ratio T-47D (24 hr)
Cc1nc(N(C)c2c(Br)cc(N)cc2Br)c2ccccc2n1 [Example 103, (4-Amino-2,6-dibromo-phenyl)-(2-methyl-quinazolin-4-yl)-methyl-amine] | 9.3
COc1ccc(Nc2nc(C)nc3ccccc23)cc1F [Example 79, (3-Fluoro-4-methoxy-phenyl)-(2-methyl-quinazolin-4-yl)-amine] | 0.7
COc1ccc(N(C)c2nc(CCl)nc3ccccc23)cc1 [Example 73, (2-Chloromethyl-quinazolin-4-yl)-(4-methoxy-phenyl)-methyl-amine] | 6.2
COc1cccc(N(C)c2nc(Cl)nc3ccccc23)c1OC [Example 39, (2-Chloro-quinazolin-4-yl)-(2,3-dimethoxy-phenyl)-methyl-amine] | 4.5
COc1ccc(N(C)c2nc(CO)nc3ccccc23)cc1 [Example 76] | 5.6
COc1ccc(N(C)c2nc(C)nc3cccc(OC)c23)cc1 [Example 91, (5-Methoxy-2-methyl-quinazolin-4-yl)-(4-methoxy-phenyl)-methyl-amine] | 8.3
COc1ccc(N(c2nc(C)nc3ccccc23)C(F)F)cc1 [Example 139, Difluoromethyl-(4-methoxy-phenyl)-(2-methyl-quinazolin-4-yl)-amine] | 5.6
CCOc1ccc(N(C)c2nc(C)nc3ccccc23)cc1 [Example 107, (4-Ethoxy-phenyl)-(2-methyl-quinazolin-4-yl)-methyl-amine] | 5.2
Cc1nc(Nc2ccc(O)cc2)c2ccccc2n1 [Example 127, (4-hydroxy-phenyl)-(2-methyl-quinazolin-4-yl)-amine] | 1.2
CN(c1ccc(Cl)cc1)c1nc(N(C)c2ccc(Cl)cc2)c2ccccc2n1 [Example 19, N^2,N^4-Bis(4-chloro-phenyl)-N^2,N^4-dimethyl-quinazoline-2,4-diamine] | 1.0
Cc1nc(Nc2ccc(OC(F)F)cc2)c2ccccc2n1 [Example 78, (4-Difluoromethoxy-phenyl)-(2-methyl-quinazolin-4-yl)-amine] | 0.6
COc1ccc(N(C)c2nc(N(C)C)nc3ccccc23)cn1 [Example 128, (2-Dimethylamino-quinazolin-4-yl)-(6-methoxy-pyridin-3-yl)-methyl-amine] | 10

Same assay, conditions: T-47D, 48 hr; benzohydrazide analogs table

Structure (SMILES) | Ratio T-47D (48 hr)
CN(NC(=O)c1ccccc1F)c1nc(C(F)(F)F)nc2ccccc12 [2-fluoro-N′-(2-(trifluoromethyl)quinazolin-4-yl)-N′-methylbenzohydrazide] | 13.7

Same assay, conditions: T-47D, 48 hr; ratio of net RFU to control

Structure (SMILES) | Caspase activity Ratio T-47D (48 hr)
COc1ccc(N(C)c2nc(Cl)nc3[nH]cnc23)cc1 [Example 51, (2-Chloro-9H-purin-6-yl)-(4-methoxy-phenyl)-methyl-amine] | 0.9
COc1ccc(N(C)c2nc(CCl)nc3ccccc23)cc1 [Example 73, (2-Chloromethyl-quinazolin-4-yl)-(4-methoxy-phenyl)-methyl-amine] | 5.7
COc1ccc(N(C)c2nc(Cl)nc3c(Cl)cccc23)cc1 [Example 89, (2,8-Dichloro-quinazolin-4-yl)-(4-methoxy-phenyl)-methyl-amine] | 7.8
COc1ccccc1Nc1nc(Cl)nc2ccccc12 [Example 33, (2-Chloro-quinazolin-4-yl)-(2-methoxy-phenyl)-amine] | 1.0
COc1ccc(N(C)c2nc(CO)nc3ccccc23)cc1 [Example 76] | 14.1
COc1cccc(Nc2nc(Cl)nc3ccccc23)c1 [Example 32, (2-Chloro-quinazolin-4-yl)-(3-methoxy-phenyl)-amine] | 1.0
COc1ccc(N(C)c2nc(Cl)nc3cc(C)ccc23)cc1 [Example 57, (2-Chloro-7-methyl-quinazolin-4-yl)-(4-methoxy-phenyl)-methyl-amine] | 6.2
CN(c1ccc(Cl)cc1)c1nc(N(C)c2ccc(Cl)cc2)c2ccccc2n1 [Example 19, N^2,N^4-Bis(4-chloro-phenyl)-N^2,N^4-dimethyl-quinazoline-2,4-diamine] | 1.0
COc1ccc(N(C)c2nc(Cl)nc3ccccc23)cc1OC [Example 68, (2-Chloro-quinazolin-4-yl)-(3,4-dimethoxy-phenyl)-methyl-amine] | 13.1

Reference: US7618975B2, “4-arylamino-quinazolines and analogs as activators of caspases and inducers of apoptosis and the use thereof” (Myriad Pharmaceuticals, Inc., priority 2003, dated 2009)
